{"source": "patent US8569298B2", "about": "“Pyridine compounds” (Astrazeneca AB, priority 2008, dated 2013)", "note": "pIC50: −log10 of the molar value.", "data": [{"molecular_target": "T1, FAK enzyme (6 His tagged kinase domain, GenBank NP—722560) (Homo sapiens, UniProt Q05397)", "T1 construct": "6 His; made in house; host or cells: insect cell culture infected with baculovirus", "T1 sequence (Q05397 422-680 limits assumed)": "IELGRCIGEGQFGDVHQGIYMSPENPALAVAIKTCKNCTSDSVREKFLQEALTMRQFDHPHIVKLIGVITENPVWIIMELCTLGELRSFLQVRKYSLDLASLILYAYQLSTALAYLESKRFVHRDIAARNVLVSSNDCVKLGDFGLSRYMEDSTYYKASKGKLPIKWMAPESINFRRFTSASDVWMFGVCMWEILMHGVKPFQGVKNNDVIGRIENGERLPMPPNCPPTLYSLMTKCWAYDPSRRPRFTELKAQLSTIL", "test": "In vitro enzyme assay (a): sandwich ELISA of FAK tyrosine kinase activity on polyGAT peptide, TMB colorimetric endpoint", "format": "biochemical", "settings": "in vitro Enzyme Assay test (a); ATP at Km; geometric mean of n > 1 measurements, values marked * tested once", "procedure,_shortened": "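Recombinant His-tagged FAK kinase domain (baculovirus/insect cells) phosphorylated plate-coated polyGAT with ATP at Km, MgCl2/MnCl2, HEPES pH 7.4, 25 min at room temperature before EDTA stop. Phosphotyrosine detected by HRP-4G10 antibody and TMB absorbance at 450 nm; IC50 from 12-point curve anchored to DMSO and staurosporine controls.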", "values": [{"smiles": "CN1CCc2cccc(Nc3cc(Nc4cnn(C)c4)ncc3F)c2C1=O", "note": "[Example 4.14, 8-[[5-fluoro-2-[(1-methylpyrazol-4-yl)amino]-4-pyridyl]amino]-2-methyl-3,4-dihydroisoquinolin-1-one]", "pIC50": 6.39}, {"smiles": "CN1CCc2cccc(Nc3cc(Nc4cnn(C5CCOCC5)c4)ncc3F)c2C1=O", "note": "[Example 4.15, 8-[[5-fluoro-2-[(1-tetrahydropyran-4-ylpyrazol-4-yl)amino]-4-pyridyl]amino]-2-methyl-3,4-dihydroisoquinolin-1-one]", "pIC50": 6.34}, {"smiles": "CN1CCC(n2cc(Nc3cc(Nc4cccc5c4C(=O)N(C)CC5)c(F)cn3)cn2)CC1", "note": "[Example 4.16, 8[[5-fluoro-2-[[1-(1-methyl-4-piperidyl)pyrazol-4-yl]amino]-4-pyridyl]amino]-2-methyl-3,4-dihydroisoquinolin-1-one]", "pIC50": 6.33}, {"smiles": "CN1CCc2cccc(Nc3cc(Nc4cnn(C5CCNCC5)c4)ncc3F)c2C1=O", "note": "[Example 4.17, 8-[[5-Fluoro-2-[[1-(4-piperidyl)pyrazol-4-yl]amino]-4-pyridyl]amino]-2-methyl-3,4-dihydroisoquinolin-1-one]", "pIC50": 6.72}, {"smiles": "CN1CCc2cccc(Nc3cc(Nc4cnn(C5CCCNC5)c4)ncc3F)c2C1=O", "note": "(stereo not drawn) [Example 4.18, 8-[[5-fluoro-2-[[1-(3-piperidyl)pyrazol-4-yl]amino]-4-pyridyl]amino]-2-methyl-3,4-dihydroisoquinolin-1-one]", "pIC50": 6.17}, {"smiles": "CN1CCc2cccc(Nc3cc(Nc4ccn(C5CCNCC5)n4)ncc3F)c2C1=O", "note": "[Example 4.19, 8-[[5-fluoro-2-[[1-(4-piperidyl)pyrazol-3-yl]amino]-4-pyridyl]amino]-2-methyl-3,4-dihydroisoquinolin-1-one]", "pIC50": 7.08}, {"smiles": "CN1CCc2cccc(Nc3cc(Nc4cnn(CC(=O)N5CCCC5)c4)ncc3F)c2C1=O", "note": "[Example 4.20, 8-[[5-Fluoro-2-[[1-(2-oxo-2-pyrrolidin-1-yl-ethyl)pyrazol-4-yl]amino]-4-pyridyl]amino]-2-methyl-3,4-dihydroisoquinolin-1-one]", "pIC50": 6.52}, {"smiles": "CN(C)CCCNC(=O)Cn1cc(Nc2cc(Nc3cccc4c3C(=O)N(C)CC4)c(F)cn2)cn1", "note": "[Example 4.21, N-(3-dimethylaminopropyl)-2-[4-[[5-fluoro-4-[(2-methyl-1-oxo-3,4-dihydroisoquinolin-8-yl)amino]-2-pyridyl]amino]pyrazol-1-yl]acetamide]", "pIC50": 6.73}, {"smiles": "CN(C)CCNC(=O)Cn1cc(Nc2cc(Nc3cccc4c3C(=O)N(C)CC4)c(F)cn2)cn1", "note": "[Example 4.22, N-(2-dimethylaminoethyl)-2-[4-[[5-fluoro-4-[(2-methyl-1-oxo-3,4-dihydroisoquinolin-8-yl)amino]-2-pyridyl]amino]pyrazol-1-yl]acetamide]", "pIC50": 6.44}, {"smiles": "COCCNC(=O)Cn1cc(Nc2cc(Nc3cccc4c3C(=O)N(C)CC4)c(F)cn2)cn1", "note": "[Example 4.23, 2-[4-[[5-fluoro-4-[(2-methyl-1-oxo-3,4-dihydroisoquinolin-8-yl)amino]-2-pyridyl]amino]pyrazol-1-yl]-N-(2-methoxyethyl)acetamide]", "pIC50": 6.35}, {"smiles": "COCCN(C)C(=O)Cn1cc(Nc2cc(Nc3cccc4c3C(=O)N(C)CC4)c(F)cn2)cn1", "note": "[Example 4.24, 2-[4-[[5-fluoro-4-[(2-methyl-1-oxo-3,4-dihydroisoquinolin-8-yl)amino]-2-pyridyl]amino]pyrazol-1-yl]-N-(2-methoxyethyl)-N-methyl-acetamide]", "pIC50": 6.53}, {"smiles": "CN1CCc2cccc(Nc3cc(Nc4cnn(CC(=O)N5CCOCC5)c4)ncc3F)c2C1=O", "note": "[Example 4.25, 8-[[5-fluoro-2-[[1-(2-morpholino-2-oxo-ethyl)pyrazol-4-yl]amino]-4-pyridyl]amino]-2-methyl-3,4-dihydroisoquinolin-1-one]", "pIC50": 6.69}, {"smiles": "CN1CCN(C(=O)Cn2cc(Nc3cc(Nc4cccc5c4C(=O)N(C)CC5)c(F)cn3)cn2)CC1", "note": "[Example 4.26, 8-[[5-fluoro-2-[[1-[2-(4-methylpiperazin-1-yl)-2-oxo-ethyl]pyrazol-4-yl]amino]-4-pyridyl]amino]-2-methyl-3,4-dihydroisoquinolin-1-one]", "pIC50": 6.70}, {"smiles": "CNC1CCN(C(=O)Cn2cc(Nc3cc(Nc4cccc5c4C(=O)N(C)CC5)c(F)cn3)cn2)C1", "note": "(stereo not drawn) [Example 4.27, 8-[[5-Fluoro-2-[[1-[2-(3-methylaminopyrrolidin-1-yl)-2-oxo-ethyl]pyrazol-4-yl]amino]-4-pyridyl]amino]-2-methyl-3,4-dihydroisoquinolin-1-one]", "pIC50": 7.14}, {"smiles": "Cc1nn(C)cc1Nc1cc(Nc2ccc(N3CCN(C(C)C)CC3)c3c2C(=O)N(C)C3)c(F)cn1", "note": "[Example 4.28, 7-[[2-[(1,3-Dimethylpyrazol-4-yl)amino]-5-fluoro-4-pyridyl]amino]-4-(4-isopropylpiperazin-1-yl)-2-methyl-isoindolin-1-one]", "pIC50": 5.95}, {"smiles": "CN1CCN(c2[nH]nc(Nc3cc(Nc4cccc5c4C(=O)N(C)CC5)c(F)cn3)c2C#N)CC1", "note": "[Example 4.29, 3-[[5-Fluoro-4-[(2-methyl-1-oxo-3,4-dihydroisoquinolin-8-yl)amino]-2-pyridyl]amino]-5-(4-methylpiperazin-1-yl)-1H-pyrazole-4-carbonitrile]", "pIC50": 4.64}, {"smiles": "Cc1nn(C)cc1Nc1cc(Nc2cccc3c2C(=O)N(C)CC3)c(C(F)(F)F)cn1", "note": "[Example 5.01, 8-[[2-[(1,3-dimethylpyrazol-4-yl)amino]-5-(trifluoromethyl)-4-pyridyl]amino]-2-methyl-3,4-dihydroisoquinolin-1-one]", "pIC50": 8.22}, {"smiles": "CNC(=O)c1c(Nc2cc(Nc3cn(C)nc3C)ncc2C(F)(F)F)cccc1OC", "note": "[Example 5.02, 2-[[2-[(1,3-dimethylpyrazol-4-yl)amino]-5-(trifluoromethyl)-4-pyridyl]amino]-6-methoxy-N-methyl-benzamide]", "pIC50": 8.05}, {"smiles": "Cc1nn(C)cc1Nc1cc(Nc2cccc3c2C(=O)N(C)CCO3)c(C(F)(F)F)cn1", "note": "[Example 5.03, 6-[[2-[(1,3-dimethylpyrazol-4-yl)amino]-5-(trifluoromethyl)-4-pyridyl]amino]-4-methyl-2,3-dihydro-1,4-benzoxazepin-5-one]", "pIC50": 8.22}, {"smiles": "CN1CCc2cccc(Nc3cc(Nc4ccnn4C)ncc3Cl)c2C1=O", "note": "[Example 6.01, 8-[[5-chloro-2-[(2-methylpyrazol-3-yl)amino]-4-pyridyl]amino]-2-methyl-3,4-dihydroisoquinolin-1-one]", "pIC50": 8.22}, {"smiles": "Cc1cc(Nc2cc(Nc3cccc4c3C(=O)N(C)CC4)c(Cl)cn2)n(C)n1", "note": "[Example 6.02, 8-[[5-chloro-2-[(2,5-dimethylpyrazol-3-yl)amino]-4-pyridyl]amino]-2-methyl-3,4-dihydroisoquinolin-1-one]", "pIC50": 8.15}, {"smiles": "Cc1c(Nc2cc(Nc3cccc4c3C(=O)N(C)CC4)c(Cl)cn2)cnn1C", "note": "[Example 6.03, 8-[[5-chloro-2-[(1,5-dimethylpyrazol-4-yl)amino]-4-pyridyl]amino]-2-methyl-3,4-dihydroisoquinolin-1-one]", "pIC50": 8.30}, {"smiles": "CCn1cc(Nc2cc(Nc3cccc4c3C(=O)N(C)CC4)c(Cl)cn2)c(C)n1", "note": "[Example 6.04, 8-[[5-chloro-2-[(1-ethyl-3-methyl-pyrazol-4-yl)amino]-4-pyridyl]amino]-2-methyl-3,4-dihydroisoquinolin-1-one]", "pIC50": 8.22}, {"smiles": "CN1CCc2cccc(Nc3cc(Nc4cc(C5CC5)nn4C)ncc3Cl)c2C1=O", "note": "[Example 6.05, 8-[[5-chloro-2-[(5-cyclopropyl-2-methyl-pyrazol-3-yl)amino]-4-pyridyl]amino]-2-methyl-3,4-dihydroisoquinolin-1-one]", "pIC50": 8.00}, {"smiles": "CCn1nccc1Nc1cc(Nc2cccc3c2C(=O)N(C)CC3)c(Cl)cn1", "note": "[Example 6.06, 8-[[5-chloro-2-[(2-ethylpyrazol-3-yl)amino]-4-pyridyl]amino]-2-methyl-3,4-dihydroisoquinolin-1-one]", "pIC50": 8.40}, {"smiles": "CN1CCc2cccc(Nc3cc(Nc4ccn(C)n4)ncc3Cl)c2C1=O", "note": "[Example 6.07, 8-[[5-chloro-2-[(1-methylpyrazol-3-yl)amino]-4-pyridyl]amino]-2-methyl-3,4-dihydroisoquinolin-1-one]", "pIC50": 8.05}, {"smiles": "CCc1nn(C(C)(C)C)c(Nc2cc(Nc3cccc4c3C(=O)N(C)CC4)c(Cl)cn2)c1C", "note": "[Example 6.08, 8-[[2-[(2-tert-butyl-5-ethyl-4-methyl-pyrazol-3-yl)amino]-5-chloro-4-pyridyl]amino]-2-methyl-3,4-dihydroisoquinolin-1-one]", "pIC50": 5.25}, {"smiles": "CC(C)Cn1cc(Nc2cc(Nc3cccc4c3C(=O)N(C)CC4)c(Cl)cn2)cn1", "note": "[Example 6.09, 8-[[5-chloro-2-[(1-isobutylpyrazol-4-yl)amino]-4-pyridyl]amino]-2-methyl-3,4-dihydroisoquinolin-1-one]", "pIC50": 7.15}, {"smiles": "CNC(=O)c1ccccc1Nc1cc(Nc2ccnn2C)ncc1C(F)(F)F", "note": "[Example 8.01, N-methyl-2-[[2-[(2-methylpyrazol-3-yl)amino]-5-(trifluoromethyl)-4-pyridyl]amino]benzamide]", "pIC50": 8.22}, {"smiles": "CNC(=O)c1ccccc1Nc1cc(Nc2cc(C)nn2C)ncc1C(F)(F)F", "note": "[Example 8.02, 2-[[2-[(2,5-dimethylpyrazol-3-yl)amino]-5-(trifluoromethyl)-4-pyridyl]amino]-N-methyl-benzamide]", "pIC50": 8.10}, {"smiles": "CNC(=O)c1ccccc1Nc1cc(Nc2cnn(C)c2C)ncc1C(F)(F)F", "note": "[Example 8.03, 2-[[2-[(1,5-dimethylpyrazol-4-yl)amino]-5-(trifluoromethyl)-4-pyridyl]amino]-N-methyl-benzamide]", "pIC50": 8.22}, {"smiles": "CCn1cc(Nc2cc(Nc3ccccc3C(=O)NC)c(C(F)(F)F)cn2)c(C)n1", "note": "[Example 8.04, 2-[[2-[(1-ethyl-3-methyl-pyrazol-4-yl)amino]-5-(trifluoromethyl)-4-pyridyl]amino]-N-methyl-benzamide]", "pIC50": 8.22}, {"smiles": "CCn1cc(Nc2cc(Nc3ccccc3C(=O)NC)c(C(F)(F)F)cn2)cn1", "note": "[Example 8.05, 2-[[2-[(1-ethylpyrazol-4-yl)amino]-5-(trifluoromethyl)-4-pyridyl]amino]-N-methyl-benzamide]", "pIC50": 7.85}]}]}
